Measurements as given in patent US20090143279A1 (priority 2007, published 2009).
Like-named read-outs stand apart in the source and are kept apart here.

Key:
[1] = system: mitochondrial membrane potential; assay type: cell-based, mouse; conditions: for ΔΨm (composite Z-score): normalized score vs mock-treated (DMSO) wells
reactive oxygen species = assay type: cell-based, mouse; conditions: for ROS (composite Z-score): normalized score vs mock-treated (DMSO) wells
OXPHOS gene expression = assay type: cell-based, mouse; conditions: for GE-HTS (composite Z-score): normalized score vs mock-treated (DMSO) wells
nuOXPHOS transcripts = assay type: cell-based, mouse; conditions: for nucOX (composite Z-score): normalized score vs mock-treated (DMSO) wells
mtOXPHOS transcripts = assay type: cell-based, mouse; conditions: for mitoOX (composite Z-score): normalized score vs mock-treated (DMSO) wells
cytochrome c = assay type: cell-based, mouse; conditions: for cyt c (composite Z-score): normalized score vs mock-treated (DMSO) wells
C2C12 myotubes = conditions: for Viability (composite Z-score): normalized score vs mock-treated (DMSO) wells
[2] = system: cellular dehydrogenase activity; conditions: for MTT (composite Z-score): normalized score vs mock-treated (DMSO) wells
[3] = 20 μM, composite Z-score vs DMSO
[4] = 13.86 μM, composite Z-score vs DMSO
[5] = composite Z-score vs DMSO, Conc 20 μM
[6] = composite Z-score vs mock-treated (DMSO) wells, Conc 20 μM
[7] = normalized composite Z-score vs mock-treated (DMSO) wells, Conc 20 μM
[8] = composite Z-score vs DMSO wells, Conc 20 μM
[9] = composite Z-score vs DMSO, Conc 20.38 μM
[10] = 27.18 μM, composite Z-score vs DMSO

Structure (SMILES)	ΔΨm (composite Z-score) ([1]; Conc 20 μM)	ROS (composite Z-score) (reactive oxygen species; Conc 20 μM)	GE-HTS (composite Z-score) (OXPHOS gene expression; Conc 20 μM)	nucOX (composite Z-score) (nuOXPHOS transcripts; Conc 20 μM)	mitoOX (composite Z-score) (mtOXPHOS transcripts; Conc 20 μM)	cyt c (composite Z-score) (cytochrome c; Conc 20 μM)	Viability (composite Z-score) (C2C12 myotubes; Conc 20 μM)	MTT (composite Z-score) ([2]; Conc 20 μM)	ΔΨm [1, 5]	ROS (reactive oxygen species; [5])	GE-HTS (OXPHOS gene expression; [5])	nucOX (nuOXPHOS transcripts; [5])	mitoOX (mtOXPHOS transcripts; [5])	cyt c (cytochrome c; [5])	Viability (C2C12 myotubes; [5])	MTT [2, 5]	further results
Oc1c(Br)cc(Br)c2cccnc12 [broxyquinoline]	–	–	–	–	–	–	–	–	–	–	–	–	–	–	–	–	ΔΨm [1, 3]: 1.701; ROS (reactive oxygen species; [3]): −1.081; GE-HTS (OXPHOS gene expression; [3]): −0.830; nucOX (nuOXPHOS transcripts; [3]): −1.095; mitoOX (mtOXPHOS transcripts; [3]): −0.157; cyt c (cytochrome c; [3]): 0.410; Viability (C2C12 myotubes; [3]): −2.006; MTT [2, 3]: −1.180
COc1cc2c(cc1OC)[C@@]13CCN4CC5=CCO[C@H]6CC(=O)N2[C@H]1[C@H]6[C@H]5C[C@H]43 [brucine]	0.552	0.930	−1.106	−1.084	−0.887	0.660	1.605	−1.270	–	–	–	–	–	–	–	–	–
COc1ccc(-c2cc(=O)c3c(O)cc(O[C@H]4O[C@H](CO[C@@H]5O[C@@H](C)[C@H](O)[C@@H](O)[C@H]5O)[C@@H](O)[C@H](O)[C@H]4O)cc3o2)cc1 [buddleoflavonoloside]	0.050	0.265	0.073	0.114	0.017	0.736	0.169	0.006	–	–	–	–	–	–	–	–	–
CCCCN1CCCCC1C(=O)Nc1c(C)cccc1C (stereo not shown) [bupivacaine]	–	–	–	–	–	–	–	–	–	–	–	–	–	–	–	–	ΔΨm [1, 4]: −0.938; ΔΨm [1, 3]: 0.084; ROS (reactive oxygen species; [4]): 0.545; ROS (reactive oxygen species; [3]): 0.801; GE-HTS (OXPHOS gene expression; [4]): −0.227; GE-HTS (OXPHOS gene expression; [3]): 0.392; nucOX (nuOXPHOS transcripts; [4]): −0.316; nucOX (nuOXPHOS transcripts; [3]): 0.548; mitoOX (mtOXPHOS transcripts; [4]): 0.002; mitoOX (mtOXPHOS transcripts; [3]): 0.009; cyt c (cytochrome c; [4]): −0.058; cyt c (cytochrome c; [3]): 0.190; Viability (C2C12 myotubes; [4]): −0.663; Viability (C2C12 myotubes; [3]): −1.202; MTT [2, 4]: −1.440; MTT [2, 3]: −0.841
COC(=O)C[C@H]1C2(C)CC34OC5(C)O[C@@]6([C@H](OC(C)=O)C(OC(C)=O)[C@]7(C)C(/C(=C(/O)C(C)C)C(=O)O[C@H]7c7ccoc7)[C@@]6(O5)[C@H](OC(C)=O)[C@@]3(O)C2OC(=O)C(C)C)[C@]14C (stereo partly shown) [bussein]	–	–	–	–	–	–	–	–	−0.807	0.656	−0.809	−0.683	−0.868	0.622	−0.052	−0.599	ΔΨm [1, 6]: 0.367; ROS (reactive oxygen species; [6]): −0.449; GE-HTS (OXPHOS gene expression; [6]): 1.630; nucOX (nuOXPHOS transcripts; [6]): 1.431; mitoOX (mtOXPHOS transcripts; [6]): 1.660; cyt c (cytochrome c; [6]): −1.496; Viability (C2C12 myotubes; [6]): 0.575; MTT [2, 6]: −1.406
CCC[C@H]1CC2=C(C[C@@H](CC)CC3=C1C(=O)OC3=O)C(=O)OC2=O [byssochlamic acid]	−0.092	0.253	−0.230	−0.069	−0.458	−1.053	−0.241	−0.488	–	–	–	–	–	–	–	–	–
NCCCCCN [cadaverine]	–	–	–	–	–	–	–	–	−0.730	0.160	−0.553	−0.667	−0.205	−0.135	−1.003	−0.915	–
CC1=CC2C(C(C)C)CCC(C)(O)C2CC1 (stereo not shown) [cadin-4-en-10-ol]	–	–	–	–	–	–	–	–	–	–	–	–	–	–	–	–	ΔΨm [1, 7]: −0.297; ROS (reactive oxygen species; [7]): 0.180; GE-HTS (OXPHOS gene expression; [7]): −0.610; nucOX (nuOXPHOS transcripts; [7]): −0.244; mitoOX (mtOXPHOS transcripts; [7]): −1.252; cyt c (cytochrome c; [7]): 0.328; Viability (C2C12 myotubes; [7]): −0.101; MTT [2, 7]: −0.041
C[C@@]12CCc3occc3[C@H]1CC[C@@]13C[C@@H](CC[C@H]12)[C@@](O)(CO)C3 [cafestol]	–	–	–	–	–	–	–	–	1.283	0.832	−0.833	−0.385	−1.543	1.374	0.025	1.124	–
O=C(O)CN(CC(=O)O)Cc1cc2c(cc1O)Oc1cc(O)c(CN(CC(=O)O)CC(=O)O)cc1C21OC(=O)c2ccccc21 [calcein]	–	–	–	–	–	–	–	–	–	–	–	–	–	–	–	–	ΔΨm [1, 8]: −3.437; ROS (reactive oxygen species; [8]): 11.668; GE-HTS (OXPHOS gene expression; [8]): −0.625; nucOX (nuOXPHOS transcripts; [8]): −0.468; mitoOX (mtOXPHOS transcripts; [8]): −0.829; cyt c (cytochrome c; [8]): 0.465; Viability (C2C12 myotubes; [8]): 5.567; MTT [2, 8]: −0.243
CCOc1nc2cccc(C(=O)OC(C)OC(=O)OC3CCCCC3)c2n1Cc1ccc(-c2ccccc2-c2nn[nH]n2)cc1 (stereo not shown) [candesartan cilextil]	–	–	–	–	–	–	–	–	−0.743	1.855	−0.432	−0.259	−0.658	1.328	1.842	−1.116	–
C[C@]12CCC(=O)C=C1C=C[C@@H]1[C@@H]2CC[C@@]2(C)[C@H]1CC[C@@]2(O)CCC(=O)O [canrenoic acid]	−0.749	0.803	0.072	0.154	−0.047	0.732	−0.004	−0.973	–	–	–	–	–	–	–	–	–
C[C@@]12C(=O)OC(=O)[C@]1(C)[C@H]1CC[C@@H]2O1 [cantharidin]	–	–	–	–	–	–	–	–	−2.513	−2.764	1.196	0.477	2.498	−5.284	−4.063	−5.729	ΔΨm [1, 9]: −2.722; ROS (reactive oxygen species; [9]): −2.786; GE-HTS (OXPHOS gene expression; [9]): 0.217; nucOX (nuOXPHOS transcripts; [9]): 0.144; mitoOX (mtOXPHOS transcripts; [9]): 0.310; cyt c (cytochrome c; [9]): −5.104; Viability (C2C12 myotubes; [9]): −4.714; MTT [2, 9]: −5.122
COC(=O)C[C@H]1C(C)(C)C(=O)[C@@H]2CC3=C(CC[C@]4(C)C3=CC(=O)O[C@H]4c3ccoc3)[C@@]1(C)C2=O [carapin-8 (9)-ene]	−0.223	0.766	0.121	−0.003	0.284	0.412	1.357	−1.272	–	–	–	–	–	–	–	–	–
COC(=O)C[C@H]1C(C)(C)C(=O)[C@@H]2CC3C4=CC(=O)O[C@@H](c5ccoc5)[C@]4(C)CC[C@@H]3[C@@]1(C)C2=O (stereo partly shown) [carapin]	–	–	–	–	–	–	–	–	–	–	–	–	–	–	–	–	ΔΨm [1, 6]: −0.524; ROS (reactive oxygen species; [6]): 1.897; GE-HTS (OXPHOS gene expression; [6]): 0.512; nucOX (nuOXPHOS transcripts; [6]): 0.665; mitoOX (mtOXPHOS transcripts; [6]): 0.058; cyt c (cytochrome c; [6]): −0.096; Viability (C2C12 myotubes; [6]): 1.424; MTT [2, 6]: −0.925
C[N+](C)(C)CCOC(N)=O [carbachol]	–	–	–	–	–	–	–	–	–	–	–	–	–	–	–	–	ΔΨm [1, 3]: −0.965; ΔΨm [1, 10]: −0.296; ROS (reactive oxygen species; [3]): 1.304; ROS (reactive oxygen species; [10]): 1.223; GE-HTS (OXPHOS gene expression; [3]): 0.355; GE-HTS (OXPHOS gene expression; [10]): −0.060; nucOX (nuOXPHOS transcripts; [3]): 0.273; nucOX (nuOXPHOS transcripts; [10]): −0.176; mitoOX (mtOXPHOS transcripts; [3]): 0.391; mitoOX (mtOXPHOS transcripts; [10]): 0.191; cyt c (cytochrome c; [3]): −0.154; cyt c (cytochrome c; [10]): −0.202; Viability (C2C12 myotubes; [3]): −0.502; Viability (C2C12 myotubes; [10]): −0.239; MTT [2, 3]: −1.002; MTT [2, 10]: 0.905
